The text below walks through data of DBAASP.

In brackets after ≈: the same amount, converted by molar mass.

Among the test systems are Micrococcus luteus; Serratia marcescens; Salmonella typhimurium; Bacillus subtilis; Pseudomonas aeruginosa; Proteus mirabilis; Shigella dysenteriae; Saccharomyces cerevisiae; Candida albicans; Escherichia coli; Streptococcus uberis; Staphylococcus aureus; Pasteurella multocida; Bacillus cereus; Leuconostoc lactis; Listeria innocua; Escherichia coli UB1005.
What all share (assay): ≥ marks a high value that may be exact or a test limit, other limits are often not marked, values filed in µg/mL are converted to µM
Assay [1] concerns Escherichia coli NCTC 10418.
The subject of assay [2] is Candida albicans NCYC 1467.
Assay [3] relates to Staphylococcus aureus NCTC 10788.
Assay [4] deals with Staphylococcus epidermidis.
For assay [5], the system named is Staphylococcus aureus ATCC BAA-1556.
Assay [6] has as its system Bacillus subtilis CMCC 63501.
Assay [7] has as its system Staphylococcus epidermidis ATCC 12228.
The test system of assay [8] is Pseudomonas aeruginosa ATCC 27853.
For assay [9], the system named is Salmonella enterica subsp. enterica serovar Typhimurium ATCC 14028.
For assay [10], the system named is Salmonella typhimurium ATCC 7731.
The test system of assay [11] is Escherichia coli ATCC 25922.
In assay [12] the test system is Staphylococcus aureus ATCC 29213.
Assay [13] has as its system Candida albicans ATCC 10231.
For assay [14], the system named is Pseudomonas aeruginosa ATCC 15442.

As for `CC[C@H](C)[C@H](NC(=O)CNC(=O)CNC(=O)[C@H](C)NC(=O)[C@@H](NC(=O)[C@H](CCCCN)NC(=O)[C@@H]1CCCN1C(=O)[C@@H](NC(=O)[C@H](CCSC)NC(=O)[C@H](CO)NC(=O)[C@H](Cc1ccccc1)NC(=O)[C@@H](N)Cc1ccccc1)[C@@H](C)CC)[C@@H](C)CC)C(=O)N[C@@H](C)C(=O)N[C@@H](CO)C(=O)N[C@@H](CC(C)C)C(=O)N[C@H](C(=O)N[C@@H](CCCCN)C(=O)N[C@@H](CC(N)=O)C(=O)N[C@@H](CC(C)C)C(N)=O)C(C)C` [FFSMIPKIAGGIASLVKNL], the MIC (as a rule, the smallest concentration in the dilution series that meets the test's criterion for growth inhibition) in assay [1] was at least 63.8 µM; in [2], 3.99 µM (≈ 8 µg/mL); in assay [3], 3.99 µM (≈ 8 µg/mL).

In the case of `CC[C@H](C)[C@H](NC(=O)CN)C(=O)N[C@@H](CC(C)C)C(=O)N[C@@H](CC(=O)O)C(=O)N[C@H](C(=O)N[C@@H](CC(C)C)C(=O)N[C@@H](CCCCN)C(=O)N[C@@H](CCC(N)=O)C(=O)N[C@@H](Cc1ccccc1)C(=O)N[C@@H](C)C(=O)N[C@@H](CCCCN)C(=O)NCC(=O)N[C@H](C(=O)NCC(=O)N[C@@H](CCCCN)C(=O)N[C@@H](CC(=O)O)C(=O)N[C@@H](CC(C)C)C(=O)N[C@H](C(=O)N[C@@H](CCCCN)C(=O)NCC(=O)N[C@@H](C)C(=O)N[C@@H](C)C(=O)N[C@@H](CCC(N)=O)C(=O)NCC(=O)N[C@H](C(=O)N[C@@H](CC(C)C)C(=O)N[C@@H](CO)C(=O)O)C(C)C)C(C)C)C(C)C)[C@@H](C)O` [GILDTLKQFAKGVGKDLVKGAAQGVLS], the MIC in the assay with Micrococcus luteus was 0.921 µM (≈ 2.5 µg/mL); against Serratia marcescens it was at least 36.8 µM; with Salmonella typhimurium, 27.6 µM (≈ 75 µg/mL); against Bacillus subtilis, 18.4 µM (≈ 50 µg/mL); with Pseudomonas aeruginosa, 9.21 µM (≈ 25 µg/mL); against Proteus mirabilis, 18.4 µM (≈ 50 µg/mL). Also, the MIC in the assay on Shigella dysenteriae was 9.21 µM (≈ 25 µg/mL); against Saccharomyces cerevisiae, 9.21 µM (≈ 25 µg/mL); in assay [4], 18.4 µM (≈ 50 µg/mL); in the assay with Candida albicans, over 36.8 µM; with Escherichia coli it was 9.21 µM (≈ 25 µg/mL).

Consider `CC[C@H](C)[C@H](NC(=O)[C@@H](NC(=O)[C@@H]1CCCN1C(=O)[C@@H](NC(=O)[C@@H](NC(=O)[C@H](Cc1cnc[nH]1)NC(=O)[C@@H]1CCCN1C(=O)[C@@H](NC(=O)[C@@H](NC(=O)[C@H](Cc1cnc[nH]1)NC(=O)[C@H](CCCCN)NC(=O)[C@@H](NC(=O)[C@@H](NC(=O)[C@H](CO)NC(=O)CNC(=O)[C@H](CC(C)C)NC(=O)[C@@H](NC(=O)[C@H](CO)NC(=O)[C@H](CC(C)C)NC(=O)[C@H](CC(C)C)NC(=O)CN)C(C)C)C(C)C)C(C)C)C(C)C)[C@@H](C)CC)C(C)C)C(C)C)C(C)C)C(=O)N[C@@H](C)C(=O)N[C@@H](CCC(=O)O)C(=O)N[C@@H](Cc1cnc[nH]1)C(=O)N[C@@H](CC(C)C)C(N)=O` [GLLSVLGSVVKHVIPHVVPVIAEHL], for which the MIC in the assay on Micrococcus luteus worked out at 4.59 µM (≈ 12 µg/mL); with Streptococcus uberis, 19.1 µM (≈ 50 µg/mL); in the assay on Staphylococcus aureus, 9.57 µM (≈ 25 µg/mL); against Pasteurella multocida it was 9.57 µM (≈ 25 µg/mL); with Bacillus cereus, 19.1 µM (≈ 50 µg/mL); in assay [4] it was 9.57 µM (≈ 25 µg/mL). Further, the minimal inhibitory concentration (MIC) in the assay on Leuconostoc lactis was 1.15 µM (≈ 3 µg/mL); against Listeria innocua, 19.1 µM (≈ 50 µg/mL); in the assay on Escherichia coli, over 38.3 µM.

The compound `CC[C@H](C)[C@H](NC(=O)[C@H](Cc1c[nH]c2ccccc12)NC(=O)[C@H](CCCN=C(N)N)NC(=O)[C@H](CCCN=C(N)N)NC(=O)[C@H](CC(C)C)NC(=O)[C@@H](N)CCCCN)C(=O)N[C@@H](CCCN=C(N)N)C(=O)N[C@@H](Cc1c[nH]c2ccccc12)C(=O)N[C@@H](CC(C)C)C(N)=O` [KLRRWIRWL] registered an MIC in assay [5] of 25 µM (≈ 33.1 µg/mL).

With `CC[C@H](C)[C@H](NC(=O)CNC(=O)[C@H](C)NC(=O)[C@H](C)NC(=O)[C@@H](NC(=O)[C@@H](NC(=O)[C@H](CC(N)=O)NC(=O)[C@@H](NC(=O)[C@H](C)NC(=O)[C@@H](NC(=O)[C@@H]1CCCN1C(=O)[C@@H](NC(=O)[C@H](CC(C)C)NC(=O)[C@@H]1CCCN1C(=O)[C@H](Cc1c[nH]c2ccccc12)NC(=O)[C@H](Cc1ccccc1)NC(=O)[C@H](CCCN=C(N)N)NC(=O)[C@@H](N)CCCCN)C(C)C)C(C)C)[C@@H](C)CC)[C@@H](C)O)C(C)C)C(=O)N[C@@H](CC(N)=O)C(N)=O` [KRFWPLVPVAINTVAAGIN], the MIC in assay [6] is at least 128 µM; in [7] it was over 128 µM; in assay [8], over 128 µM; in assay [9], over 128 µM; in assay [10], at least 128 µM; in [11] it was over 128 µM. Besides, the MIC in [12] is over 128 µM; against Escherichia coli UB1005, at least 128 µM.

`CC[C@H](C)[C@H](NC(=O)[C@H](Cc1c[nH]c2ccccc12)NC(=O)[C@H](CCCN=C(N)N)NC(=O)[C@H](CCCN=C(N)N)NC(=O)[C@H](Cc1c[nH]c2ccccc12)NC(=O)[C@@H](N)CCCCN)C(=O)N[C@@H](CCCN=C(N)N)C(N)=O` [KWRRWIR]: the MIC in assay [5] was at least 100 µM.

In turn, `CC(C)C[C@H](NC(=O)[C@H](CC(C)C)NC(=O)[C@H](CC(C)C)NC(=O)[C@H](CC(C)C)NC(=O)[C@H](CC(C)C)NC(=O)[C@H](CCCCN)NC(=O)[C@H](CC(C)C)NC(=O)[C@@H](N)CC(C)C)C(=O)N[C@@H](CCCCN)C(N)=O` [LLKLLLLLK] had an MIC in assay [5] of at least 100 µM.

As for `CC(C)C[C@H](NC(=O)[C@H](CC(C)C)NC(=O)[C@H](CC(C)C)NC(=O)[C@H](CC(C)C)NC(=O)[C@H](CC(C)C)NC(=O)[C@H](CC(C)C)NC(=O)[C@H](CCCCN)NC(=O)[C@H](CC(C)C)NC(=O)[C@@H](N)CC(C)C)C(N)=O` [LLKLLLLLL], in assay [5], the MIC was at least 100 µM.

As to `CC[C@H](C)[C@H](NC(=O)[C@H](C)NC(=O)[C@@H](N)C(C)C)C(=O)N[C@@H](C)C(=O)N[C@@H](CC(C)C)C(=O)N[C@@H](CCCCN)C(=O)N[C@@H](C)C(=O)N[C@@H](C)C(=O)N[C@@H](Cc1cnc[nH]1)C(=O)N[C@@H](Cc1ccc(O)cc1)C(=O)N[C@@H](Cc1cnc[nH]1)C(=O)N[C@H](C(=O)N[C@@H](C)C(=O)N[C@@H](CCCCN)C(=O)N[C@@H](CCC(=O)O)C(=O)O)[C@@H](C)O` [VAIALKAAHYHTAKE], the MIC is 78.9 µM (≈ 128 µg/mL) in [13], at least 78.9 µM in assay [14] and 0.154 µM (≈ 0.25 µg/mL) in assay [12].

In assay [5], `CC(C)C[C@H](NC(=O)[C@H](Cc1c[nH]c2ccccc12)NC(=O)[C@H](Cc1c[nH]c2ccccc12)NC(=O)[C@H](CC(C)C)NC(=O)[C@H](Cc1c[nH]c2ccccc12)NC(=O)[C@@H](N)Cc1c[nH]c2ccccc12)C(=O)N[C@@H](CCCN=C(N)N)C(N)=O` [WWLWWLR] displayed an MIC of 12.5 µM (≈ 14.3 µg/mL).
